# Reference: patent publication US20110178104A1, “Anti-Heparin Compounds” (POLYMEDIX INC., priority 2010, published 2011)
# What was measured:
# [1] = tested on: unfractionated heparin (UFH); assay: aPTT clotting assay, UFH 0.2 U/mL in plasma (Example 7); format: biochemical; details: UFH 0.2 U/mL in plasma
# Method: aPTT clotting Assay. Unfractionated heparin was mixed with plasma at a final concentration of 0.2 U/mL. […] The ACL Elite Hemostasis analyzer (Beckman Coulter™) was used to add aPTT reagent (HemosIL SynthASil) to supplemented plasma. Clotting was initiated by addition of CaCl2 and time to clot was recorded.
# enoxaparin (ENOX) = assay: FXa chromogenic assay (absence of plasma), enoxaparin; details: enoxaparin 0.1 μg/mL, absence of plasma
# fondaparinux (FONDAPX) = assay: FXa chromogenic assay (absence of plasma), fondaparinux; details: fondaparinux 0.02 μg/mL, absence of plasma
# Method: Human antithrombin was mixed with an anticoagulant agent (a LMWH or fondaparinux); final concentrations were 0.22 μg/mL for the LMWHs and 0.07 μg/mL for fondaparinux. […] Absorbance was read every 30 seconds over a 4 minute period in a SpectraMax 250 instrument (Molecular Devices, Inc.). EC50 values are determined by a curve-fit program (SoftMax Pro) using the following formula:
# FXa Chromogenic Assay (absence of plasma). Human antithrombin was mixed with an anticoagulant (a LMWH or fondaparinux); final concentrations were 0.1 μg/mL for the LMWHs and 0.02 μg/mL for fondaparinux. […] Absorbance was read every 30 seconds over a 4 minute period in a SpectraMax 250 instrument (Molecular Devices Inc.™) The slope of absorbance vs time was calculated for each compound concentration. EC50 values were determined using a curve fit program (GraphPad Prism 5).
SMILES,UFH (aPTT) EC50 [1] [µg/mL],ENOX (FXa) EC50 (enoxaparin (ENOX)) [µg/mL],FONDAPX (FXa) EC50 (fondaparinux (FONDAPX))
COc1ccc(NC(=O)[C@H](CCCCN)NC(=O)c2cc(NC(=O)[C@H](CCCCN)NC(=O)c3cc(NC(=O)[C@H](CCCCN)NC(=O)c4cc(N)cc(C(F)(F)F)c4)ccc3OC)ccc2OC)cc1C(N)=O [Compound 125],>10,0.9448,3.114 µg/mL
COc1ccc(NC(=O)[C@H](CCCCN)NC(=O)c2cc(NC(=O)[C@H](CCCCN)NC(=O)c3cc(NC(=O)[C@H](CCCCN)NC(=O)c4ccc(NC(=O)[C@@H](N)CCCCN)cc4)ccc3OC)ccc2OC)cc1C(N)=O [Compound 126],9.07,0.7187,>20 µg/mL
COc1ccc(NC(=O)[C@H](CCCCN)NC(=O)c2cc(NC(=O)[C@H](CCCCN)NC(=O)c3cc(NC(=O)[C@H](CCCCN)NC(=O)c4cccc(N(C)C(=O)[C@@H](N)CCCCN)c4)ccc3OC)ccc2OC)cc1C(N)=O [Compound 127],2.33,>15,inactive
CNc1cccc(C(=O)N[C@@H](CCCCN)C(=O)Nc2ccc(OC)c(C(=O)N[C@@H](CCCCN)C(=O)Nc3ccc(OC)c(C(=O)N[C@@H](CCCCN)C(=O)Nc4ccc(OC)c(C(N)=O)c4)c3)c2)c1 [Compound 128],4.17,1.651,8.495 µg/mL
COc1ccc(NC(=O)[C@H](CCCCN)NC(=O)c2cc(NC(=O)[C@H](CCCCN)NC(=O)c3cc(NC(=O)[C@H](CCCCN)NC(=O)c4ccc(NC(=O)[C@@H](N)CCCCN)cc4OC)ccc3OC)ccc2OC)cc1C(N)=O [Compound 129],2.47,0.3888,7.996 µg/mL
COc1ccc(NC(=O)[C@H](CCCCN)NC(=O)c2cc(NC(=O)[C@H](CCCCN)NC(=O)c3cc(NC(=O)[C@H](CCCCN)NC(=O)c4cc(NC(=O)[C@@H](N)CCCCN)ccc4SC)ccc3OC)ccc2OC)cc1C(N)=O [Compound 130],2.50,0.3835,5.47 µg/mL
COc1ccc(NC(=O)[C@H](CCCCN)NC(=O)c2cc(NC(=O)[C@H](CCCCN)NC(=O)c3cc(NC(=O)[C@H](CCCCN)NC(=O)c4cnc(N)s4)ccc3OC)ccc2OC)cc1C(N)=O [Compound 131],3.68,4.499,>20 µg/mL
COc1ccc(NC(=O)[C@H](CCCCN)NC(=O)c2cc(NC(=O)[C@H](CCCCN)NC(=O)c3cc(NC(=O)[C@H](CCCCN)NC(=O)c4cc(NC(=O)[C@@H](N)CCCCN)ccc4OC)ccc3SC)ccc2OC)cc1C(N)=O [Compound 132],>10,>20,inactive
COc1ccc(NC(=O)[C@H](CCCCN)NC(=O)c2cc(NC(=O)[C@H](CCCCN)NC(=O)c3cc(NC(=O)[C@H](CCCCN)NC(=O)c4cc(NC(=O)[C@@H](N)CCCCN)ccc4OC)ccc3OC)ccc2SC)cc1C(N)=O [Compound 133],>10,>20,inactive
COc1ccc(NC(=O)[C@H](CCCCN)NC(=O)c2cc(NC(=O)[C@@H](N)CCCCN)ccc2OC)cc1C(=O)N[C@@H](CCCCN)C(=O)Nc1ccc(OC)c(C(=O)N[C@@H](CCCCN)C(=O)Nc2ccc(SC)c(C(N)=O)c2)c1 [Compound 134],2.84,1.829,inactive
